Source: patent US20120034613A1, “Apparatus and Method for Testing Relationships Between Gene Expression and Physical Appearance of Skin” (NSE Products, Inc., priority 2010, published 2012)

System: EpidermFT™ Skin Model (EFT-400) full thickness skin cultures
Experiment: Affymetrix GeneChip HG U133 Plus 2.0 microarray global gene expression, agent-exposed vs untreated skin cultures
Assay type: cell-based, human
[1] = Salicin 0.5% vs Untreated Control, 24 hr, direction down
[2] = probe 201286_at, Table 3 skin structure
[3] = probe 203535_at, Table 3 skin structure
[4] = probe 204422_s_at, Table 3 skin structure

OCc1ccccc1O[C@@H]1O[C@H](CO)[C@@H](O)[C@H](O)[C@H]1O [Salicin, 2-(Hydroxymethyl)phenyl β-D-glucospyranoside]
Fold change WNK1 (211993_at) [1]: 2.037
Fold change ZBTB1 (1557036_at) [1]: 2.05
Fold change ZDHHC21 (241946_at) [1]: 2.09
Fold change ZFYVE21 (219929_s_at) [1]: 2.001
Fold change ZHX1 (223213_s_at) [1]: 2.071
Fold change ZHX1 (223214_s_at) [1]: 2.15
Fold change ZNF85 (1554445_at) [1]: 2.143
Fold change ZNF561 (235200_at) [1]: 2.135
Fold change ZNF589 (219968_at) [1]: 2.059
Fold change ZNF823 (229732_at) [1]: 2.045
Direction DSP (probe 200606_at, 0.5%, 24 hr): down
Fold change DSP (probe 200606_at, 0.5%, 24 hr): 2.848
Direction HSPA1A /// HSPA1B (probe 200800_s_at, 0.5%, 24 hr): up
Fold change HSPA1A /// HSPA1B (probe 200800_s_at, 0.5%, 24 hr): 3.112
Direction SCD (probe 200832_s_at, 0.5%, 24 hr): down
Fold change SCD (probe 200832_s_at, 0.5%, 24 hr): 3.77
Direction ABLIM1 (probe 200965_s_at, 0.5%, 24 hr): down
Fold change ABLIM1 (probe 200965_s_at, 0.5%, 24 hr): 11.88
Direction TGM2 (probe 201042_at, 0.5%, 24 hr): up
Fold change TGM2 (probe 201042_at, 0.5%, 24 hr): 2.351
Direction DUSP1 (probe 201044_x_at, 0.5%, 24 hr): up
Fold change DUSP1 (probe 201044_x_at, 0.5%, 24 hr): 3.726
Direction TIMP3 (probe 201150_s_at, 0.5%, 24 hr): up
Fold change TIMP3 (probe 201150_s_at, 0.5%, 24 hr): 2.058
Direction SDC1 [2]: down
Fold change SDC1 [2]: 4.63
Direction SDC1 (probe 201287_s_at, 0.5%, 24 hr): down
Fold change SDC1 (probe 201287_s_at, 0.5%, 24 hr): 3.32
Direction CLDN4 (probe 201428_at, 0.5%, 24 hr): down
Fold change CLDN4 (probe 201428_at, 0.5%, 24 hr): 3.454
Direction ITGA3 (probe 201474_s_at, 0.5%, 24 hr): down
Fold change ITGA3 (probe 201474_s_at, 0.5%, 24 hr): 2.052
Direction NFKBIA (probe 201502_s_at, 0.5%, 24 hr): up
Fold change NFKBIA (probe 201502_s_at, 0.5%, 24 hr): 3.064
Direction ITGA6 (probe 201656_at, 0.5%, 24 hr): down
Fold change ITGA6 (probe 201656_at, 0.5%, 24 hr): 4.442
Direction KRT5 (probe 201820_at, 0.5%, 24 hr): down
Fold change KRT5 (probe 201820_at, 0.5%, 24 hr): 2.154
Direction EPCAM (probe 201839_s_at, 0.5%, 24 hr): down
Fold change EPCAM (probe 201839_s_at, 0.5%, 24 hr): 2.093
Direction PLAT (probe 201860_s_at, 0.5%, 24 hr): up
Fold change PLAT (probe 201860_s_at, 0.5%, 24 hr): 4.229
Direction ALDH3A2 (probe 202053_s_at, 0.5%, 24 hr): down
Fold change ALDH3A2 (probe 202053_s_at, 0.5%, 24 hr): 4.399
Direction TUBB3 (probe 202154_x_at, 0.5%, 24 hr): down
Fold change TUBB3 (probe 202154_x_at, 0.5%, 24 hr): 2.967
Direction NR4A1 (probe 202340_x_at, 0.5%, 24 hr): up
Fold change NR4A1 (probe 202340_x_at, 0.5%, 24 hr): 2.338
Direction IFI27 (probe 202411_at, 0.5%, 24 hr): down
Fold change IFI27 (probe 202411_at, 0.5%, 24 hr): 4.671
Direction ACSL4 (probe 202422_s_at, 0.5%, 24 hr): up
Fold change ACSL4 (probe 202422_s_at, 0.5%, 24 hr): 3.786
Direction HSPA13 (probe 202558_s_at, 0.5%, 24 hr): up
Fold change HSPA13 (probe 202558_s_at, 0.5%, 24 hr): 3.13
Direction EPS8 (probe 202609_at, 0.5%, 24 hr): up
Fold change EPS8 (probe 202609_at, 0.5%, 24 hr): 2.334
Direction TNFAIP3 (probe 202643_s_at, 0.5%, 24 hr): up
Fold change TNFAIP3 (probe 202643_s_at, 0.5%, 24 hr): 6.915
Direction TNFSF10 (probe 202687_s_at, 0.5%, 24 hr): down
Fold change TNFSF10 (probe 202687_s_at, 0.5%, 24 hr): 20.31
Direction FOXO1 (probe 202724_s_at, 0.5%, 24 hr): up
Fold change FOXO1 (probe 202724_s_at, 0.5%, 24 hr): 2.098
Direction SPINT1 (probe 202826_at, 0.5%, 24 hr): down
Fold change SPINT1 (probe 202826_at, 0.5%, 24 hr): 4.585
Direction DNAJB9 (probe 202843_at, 0.5%, 24 hr): up
Fold change DNAJB9 (probe 202843_at, 0.5%, 24 hr): 3.56
Direction FBN2 (probe 203184_at, 0.5%, 24 hr): up
Fold change FBN2 (probe 203184_at, 0.5%, 24 hr): 2.028
Direction S100A9 [3]: down
Fold change S100A9 [3]: 2.59
Direction LPL (probe 203549_s_at, 0.5%, 24 hr): up
Fold change LPL (probe 203549_s_at, 0.5%, 24 hr): 4.075
Direction PDE4B (probe 203708_at, 0.5%, 24 hr): up
Fold change PDE4B (probe 203708_at, 0.5%, 24 hr): 5.314
Direction AQP3 (probe 203747_at, 0.5%, 24 hr): down
Fold change AQP3 (probe 203747_at, 0.5%, 24 hr): 2.032
Direction DNAJB4 (probe 203810_at, 0.5%, 24 hr): up
Fold change DNAJB4 (probe 203810_at, 0.5%, 24 hr): 2.053
Direction MAP3K5 (probe 203836_s_at, 0.5%, 24 hr): up
Fold change MAP3K5 (probe 203836_s_at, 0.5%, 24 hr): 2.356
Direction THBD (probe 203887_s_at, 0.5%, 24 hr): down
Fold change THBD (probe 203887_s_at, 0.5%, 24 hr): 3.137
Direction PLCB4 (probe 203896_s_at, 0.5%, 24 hr): up
Fold change PLCB4 (probe 203896_s_at, 0.5%, 24 hr): 4.016
Direction FABP4 (probe 203980_at, 0.5%, 24 hr): up
Fold change FABP4 (probe 203980_at, 0.5%, 24 hr): 2.251
Direction LPAR1 (probe 204038_s_at, 0.5%, 24 hr): up
Fold change LPAR1 (probe 204038_s_at, 0.5%, 24 hr): 2.732
Direction FILIP1L (probe 204135_at, 0.5%, 24 hr): down
Fold change FILIP1L (probe 204135_at, 0.5%, 24 hr): 2.996
Direction TUBB2A (probe 204141_at, 0.5%, 24 hr): down
Fold change TUBB2A (probe 204141_at, 0.5%, 24 hr): 2.739
Direction ELOVL6 (probe 204256_at, 0.5%, 24 hr): down
Fold change ELOVL6 (probe 204256_at, 0.5%, 24 hr): 3.121
Direction EDNRB (probe 204273_at, 0.5%, 24 hr): up
Fold change EDNRB (probe 204273_at, 0.5%, 24 hr): 3.916
Direction FGFR3 (probe 204379_s_at, 0.5%, 24 hr): down
Fold change FGFR3 (probe 204379_s_at, 0.5%, 24 hr): 5.288
Direction FGF2 (probe 204421_s_at, 0.5%, 24 hr): up
Fold change FGF2 (probe 204421_s_at, 0.5%, 24 hr): 3.845
Direction FGF2 [4]: up
Fold change FGF2 [4]: 3.455
Direction COL17A1 (probe 204636_at, 0.5%, 24 hr): down
Fold change COL17A1 (probe 204636_at, 0.5%, 24 hr): 3.576
Direction KLK6 (probe 204733_at, 0.5%, 24 hr): down
Fold change KLK6 (probe 204733_at, 0.5%, 24 hr): 16.28
Direction KRT15 (probe 204734_at, 0.5%, 24 hr): down
Fold change KRT15 (probe 204734_at, 0.5%, 24 hr): 3.6
Direction SMAD7 (probe 204790_at, 0.5%, 24 hr): up
Fold change SMAD7 (probe 204790_at, 0.5%, 24 hr): 2.151
Direction PTGER4 (probe 204897_at, 0.5%, 24 hr): up
Fold change PTGER4 (probe 204897_at, 0.5%, 24 hr): 2.525
Direction INFRSF11B (probe 204932_at, 0.5%, 24 hr): up
Fold change INFRSF11B (probe 204932_at, 0.5%, 24 hr): 6.287
